Laboratory results reported in patent publication US9580433B2 (Janssen Pharmaceutica NV, priority 2013, dated 2017).

Assays:
BACE1 = biological target: T1, BACE1 (Homo sapiens, UniProt P56817); experiment: BACE1 biochemical FRET based assay; settings: recombinant BACE1, 450 min, pH 5.0; read-out: BACE1 Biochemical FRET based assay pIC50 (converted)
T1 construct: recombinant BACE1 protein in a final concentration of 0.04 g/ml

[1] = test system: Abeta 1-42 produced and secreted by SKNBE2 cells (BACE1); experiment: BACE1 cellular αLisa assay in SKNBE2 cells, Abeta 1-42; format: cell-based, human; settings: Homo sapiens, SKNBE2, 18 h, SKNBE2 cells expressing hAPP695, 18 hours incubation; read-out: Cellular αLisa assay in SKNBE2 cells Abeta 42 pIC50 (converted)
Experimental: (§1) BACE1 Cellular αLisa Assay in SKNBE2 Cells
(§2) In two αLisa assays the levels of Abeta total and Abeta 1-42 produced and secreted into the medium of human neuroblastoma SKNBE2 cells are quantified. The assay is based on the human neuroblastoma SKNBE2 expressing the wild type Amyloid Precursor Protein (hAPP695). The compounds are diluted and added to these cells, incubated for 18 hours and then measurements of Abeta 1-42 and Abeta total are taken. Abeta total and Abeta 1-42 are measured by sandwich αLisa. αLisa is a sandwich assay using biotinylated antibody AbN/25 attached to streptavidin coated beads and antibody Ab4G8 or cAb42/26 conjugated acceptor beads for the detection of Abeta total and Abeta 1-42 respectively. In the presence of Abeta total or Abeta 1-42, the beads come into close proximity. The excitation of the donor beads provokes the release of singlet oxygen molecules that trigger a cascade of energy transfer in the acceptor beads, resulting in light emission. Light emission is measured after 1 hour incubation (excitation at […] and emission at 615 nm).
(§3) A best-fit curve is fitted by a minimum sum of squares method to the plot of % Controlmin versus compound concentration.

[2] = test system: Abeta total produced and secreted by SKNBE2 cells (BACE1); experiment: BACE1 cellular αLisa assay in SKNBE2 cells, Abeta total; format: cell-based, human; settings: Homo sapiens, SKNBE2, 18 h, SKNBE2 cells expressing hAPP695, 18 hours incubation; read-out: Cellular αLisa assay in SKNBE2 cells Abetatotal pIC50 (converted)
Experimental: as §1, §2, §3

BACE2 = biological target: T2, BACE2 (Homo sapiens, UniProt Q9Y5Z0); experiment: BACE2 biochemical FRET based assay; settings: recombinant BACE2, 450 min, pH 5.0; read-out: BACE2 Biochemical FRET based assay pIC50 (converted)
T2 construct: recombinant BACE2 protein in a final concentration of 0.4 μg/ml
T2 sequence (Q9Y5Z0 63-518): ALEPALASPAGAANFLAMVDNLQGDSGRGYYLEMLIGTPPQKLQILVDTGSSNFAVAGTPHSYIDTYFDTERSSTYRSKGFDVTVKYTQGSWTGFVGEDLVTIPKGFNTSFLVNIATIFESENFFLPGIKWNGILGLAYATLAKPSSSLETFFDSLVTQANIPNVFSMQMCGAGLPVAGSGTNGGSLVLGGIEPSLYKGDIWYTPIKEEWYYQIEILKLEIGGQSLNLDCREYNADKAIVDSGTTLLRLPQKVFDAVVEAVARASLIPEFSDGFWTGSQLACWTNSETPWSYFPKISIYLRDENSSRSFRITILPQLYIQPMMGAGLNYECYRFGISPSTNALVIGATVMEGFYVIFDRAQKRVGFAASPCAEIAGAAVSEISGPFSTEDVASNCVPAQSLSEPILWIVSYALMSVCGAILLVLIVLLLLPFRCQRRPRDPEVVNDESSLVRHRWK

[3] = test system: brain levels of soluble Aβ42, Aβ40; experiment: In vivo Aβ lowering, brain levels of soluble Aβ by MSD electrochemiluminescence; set-up: species or system mouse; settings: 4 h after administration, untreated control set at 100
Excerpt: To determine whether acute administration of an Aβ lowering agent would reduce Aβ levels in vivo, non-transgenic rodents, e.g. mice or rats were used. Animals treated with the Aβ lowering agent were examined and compared to those untreated or treated with vehicle and brain levels of soluble Aβ42, Aβ40, Aβ38, and Aβ37 were quantitated by Meso Scale Discovery's (MSD) electrochemiluminescence detection technology. Treatment periods varied from hours (h) to days and were adjusted based on the results of the Aβ lowering once a time course of onset of effect could be established.
A typical protocol for measuring Aβ lowering in vivo is shown but it is only one of many variations that could be used to optimize the levels of detectable Aβ. For example, Aβ lowering compounds were formulated in 20% of Captisol® (a sulfo-butyl ether of β-cyclodextrin) in water or 20% hydroxypropyl 3 cyclodextrin. The Aβ lowering agents were administered as a single oral dose or by any acceptable route of administration to overnight fasted animals. After 4 h, the animals were sacrificed and Aβ levels were analysed.
Blood was collected by decapitation and exsanguinations in EDTA-treated collection tubes. Blood was centrifuged at 1900 g for 10 minutes (min) at 4° C. and the plasma recovered and flash frozen for later analysis. The brain was removed from the cranium and hindbrain. The cerebellum was removed and the left and right hemisphere were separated. The left hemisphere was stored at −18° C. for quantitative analysis of test compound levels. The right hemisphere was rinsed with phosphate-buffered saline (PBS) buffer and immediately frozen on dry ice and stored at −80° C. until homogenization for biochemical assays.
Mouse brains from non-transgenic animals were resuspended in 8 volumes of 0.4% DEA (diethylamine)/50 mM NaCl containing protease inhibitors (Roche-11873580001 or 04693159001) per gram of tissue, e.g. for 0.158 g brain, add 1.264 ml of 0.4% DEA. All samples were homogenized in the FastPrep-24 system (MP Biomedicals) using lysing matrix D (MPBio #6913-100) at 6 m/s for 20 seconds. […] Nine parts of supernatant were neutralized with 1 part 0.5 M Tris-HCl pH 6.8 and used to quantify Aβ.
To quantify the amount of Aβ42, Aβ40, Aβ38, and Aβ37 in the soluble fraction of the brain homogenates, simultaneous specific detection of Aβ42, Aβ40, Aβ38, and Aβ37 was performed using MSD's electro-chemiluminescence multiplex detection technology. […] Following this incubation and subsequent wash steps the assay was finished by adding read buffer according to the manufacturer's instructions (Meso Scale Discovery, Gaithersburg, Md.).
The SULFO-TAG emits light upon electrochemical stimulation initiated at the electrode. MSD Sector instrument SI6000 was used for signal read-out. […]

T1 sequence (P56817 46-501): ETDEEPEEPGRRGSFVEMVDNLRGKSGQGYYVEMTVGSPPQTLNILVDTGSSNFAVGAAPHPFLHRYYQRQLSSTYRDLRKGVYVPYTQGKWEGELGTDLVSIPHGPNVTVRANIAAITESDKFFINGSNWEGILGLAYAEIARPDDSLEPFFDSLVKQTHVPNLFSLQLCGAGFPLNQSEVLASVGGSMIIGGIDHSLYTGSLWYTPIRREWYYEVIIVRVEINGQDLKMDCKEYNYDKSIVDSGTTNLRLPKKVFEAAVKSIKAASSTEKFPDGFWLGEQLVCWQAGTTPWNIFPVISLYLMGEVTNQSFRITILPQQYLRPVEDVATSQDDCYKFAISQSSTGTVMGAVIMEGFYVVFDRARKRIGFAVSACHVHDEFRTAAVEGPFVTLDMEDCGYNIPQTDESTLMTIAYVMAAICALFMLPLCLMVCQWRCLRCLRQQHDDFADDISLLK

Question: `Cc1nc(C(=O)Nc2ccc(F)c([C@]3(C)Cn4cncc4C(N)=N3)c2)co1` [Compound 4, N-{3-[(6R)-8-Amino-6-methyl-5,6-dihydroimidazo[1,5-a]pyrazin-6-yl]-4-fluorophenyl}-2-methyl-1,3-oxazole-4-carboxamide] was tested. Which IC50 (BACE1) did it give?
Answer: 11.7 nM

Question: What about the IC50 [1] of the same molecule?
Answer: 26.3 nM

Question: And the IC50 [2]?
Answer: 24 nM

Question: What about the IC50 (BACE2) of the same molecule?
Answer: 6.46 nM

Question: What about the “Aβ40 (% vs Ctrl)_Mean” value ([3]; dose 10, p.o.) of the same molecule?
Answer: 111 % vs Ctrl

Question: And the “Aβ42 (% vs Ctrl)_Mean” value ([3]; dose 10, p.o.)?
Answer: 108 % vs Ctrl

Question: For `C[C@@]1(c2cc(NC(=O)c3ccc(C#N)cn3)ccc2F)Cn2cncc2C(N)=N1` [Compound 5, N-{3-[(6R)-8-Amino-6-methyl-5,6-dihydroimidazo[1,5-a]pyrazin-6-yl]-4-fluorophenyl}-5-cyanopyridine-2-carboxamide], which IC50 [1] is on record?
Answer: 5.25 nM

Question: And the IC50 [2]?
Answer: 4.79 nM

Question: What about the “Aβ40 (% vs Ctrl)_Mean” value ([3]; dose 10, s.c.) of the same molecule?
Answer: 108 % vs Ctrl

Question: And the “Aβ42 (% vs Ctrl)_Mean” value ([3]; dose 10, s.c.)?
Answer: 100 % vs Ctrl
